Experimental data taken from ChEMBL document CHEMBL2177079, “Free-Wilson and structural approaches to co-optimizing human and rodent isoform potency for 11β-hydroxysteroid dehydrogenase type 1 (11β-HSD1) inhibitors” (J Med Chem, 2012).
Blank lines part the entries; values can stand above or below the compound they belong to. Active and inactive are the calls of the source. The rule behind the calls is not given here.

Key:
[1] = Lipophilicity, log D at pH 7.4; type: physicochemical; details: buffer
Rattus norvegicus [2] = assay: (§1) Oral bioavailability in Han Wistar rat at 7.4 to 14.7 umol/kg; type: ADME, organism-based; details: in vivo
[3] = biological target: 11-beta-hydroxysteroid dehydrogenase 1 (Mus musculus, UniProt P50172); assay: Inhibition of mouse 11beta-HSD1 by HTRF assay
Rattus norvegicus [4] = assay: Inhibition of 11beta-HSD1 in po dosed Han Wistar rat epididymal adipose tissue assessed as conversion of [3H]cortisone to [3H]cortisol; type: functional, organism-based
Mus musculus [5] = assay: Inhibition of 11beta-HSD1 in po dosed C57 mouse epididymal adipose tissue assessed as conversion of [3H]cortisone to [3H]cortisol; type: functional, organism-based
[6] = Fraction unbound in human plasma; type: ADME, cell-free
[7] = Intrinsic clearance in human hepatocytes measured per 10^6 cells; type: ADME, cell-based, Hepatocyte; details: read-out: CLH
[8] = Intrinsic clearance in female beagle dog hepatocytes measured per 10^6 cells; type: ADME, cell-based, Canis lupus familiaris, Hepatocyte; details: read-out: CLH
[9] = Intrinsic clearance in male beagle dog hepatocytes measured per 10^6 cells; type: ADME, cell-based, Canis lupus familiaris, Hepatocyte; details: read-out: CLH
[10] = Intrinsic clearance in mouse hepatocytes measured per 10^6 cells; type: ADME, cell-based, Hepatocyte; details: read-out: CLH
[11] = Intrinsic clearance in Han Wistar rat hepatocytes measured per 10^6 cells; type: ADME, cell-based, Hepatocyte; details: read-out: CLH
[12] = Fraction unbound in female beagle dog plasma; type: ADME, cell-free, Canis lupus familiaris
[13] = Fraction unbound in Han Wistar rat plasma; type: ADME, cell-free
[14] = Fraction unbound in male beagle dog plasma; type: ADME, cell-free, Canis lupus familiaris
[15] = Oral bioavailability in female beagle dog at 1.2 umol/kg; type: ADME, organism-based, Canis lupus familiaris; details: in vivo
[16] = Fraction unbound in mouse plasma; type: ADME, cell-free
[17] = Oral bioavailability in male beagle dog at 1.2 umol/kg; type: ADME, organism-based, Canis lupus familiaris; details: in vivo
[18] = Oral bioavailability in Han Wistar rat at 11.7 umol/kg; type: ADME, organism-based; details: in vivo
[19] = AUC in female beagle dog at 1.2 umol/kg, po; type: ADME, organism-based, Canis lupus familiaris; details: plasma
[20] = Oral bioavailability in mouse at 11.7 umol/kg; type: ADME, organism-based; details: in vivo
[21] = AUC in Han Wistar rat at 11.7 umol/kg, po; type: ADME, organism-based; details: plasma
[22] = AUC in male beagle dog at 1.2 umol/kg, po; type: ADME, organism-based, Canis lupus familiaris; details: plasma
[23] = Volume of distribution at steady state in female beagle dog at 1 umol/kg, iv; type: ADME, organism-based, Canis lupus familiaris; details: in vivo, read-out: Vdss
[24] = AUC in mouse at 11.7 umol/kg, po; type: ADME, organism-based, Plasma; details: whole blood
[25] = Volume of distribution at steady state in male beagle dog at 1 umol/kg, iv; type: ADME, organism-based, Canis lupus familiaris; details: in vivo, read-out: Vdss
[26] = Volume of distribution at steady state in mouse at 4.7 umol/kg, iv; type: ADME, organism-based; details: in vivo, read-out: Vdss
[27] = Volume of distribution at steady state in Han Wistar rat at 4.7 umol/kg, iv; type: ADME, organism-based; details: in vivo, read-out: Vdss
[28] = Half life in female beagle dog at 1 umol/kg, iv; type: ADME, organism-based, Canis lupus familiaris; details: in vivo
[29] = Half life in Han Wistar rat at 4.7 umol/kg, iv; type: ADME, organism-based; details: in vivo
[30] = Half life in male beagle dog at 1 umol/kg, iv; type: ADME, organism-based, Canis lupus familiaris; details: in vivo
[31] = Half life in mouse at 4.7 umol/kg, iv; type: ADME, organism-based; details: in vivo
[32] = Clearance in male beagle dog at 1 umol/kg, iv; type: ADME, organism-based, Canis lupus familiaris; details: in vivo
[33] = Clearance in female beagle dog at 1 umol/kg, iv; type: ADME, organism-based, Canis lupus familiaris; details: in vivo
[34] = Clearance in Han Wistar rat at 4.7 umol/kg, iv; type: ADME, organism-based; details: in vivo
[35] = Clearance in mouse at 4.7 umol/kg, iv; type: ADME, organism-based; details: in vivo
[36] = biological target: T1, 17-beta-hydroxysteroid dehydrogenase type 3 (Homo sapiens) (UniProt P37058); assay: Inhibition of human 17beta-HSD3 at 10 uM by HPLC assay
T1 sequence (whole entry): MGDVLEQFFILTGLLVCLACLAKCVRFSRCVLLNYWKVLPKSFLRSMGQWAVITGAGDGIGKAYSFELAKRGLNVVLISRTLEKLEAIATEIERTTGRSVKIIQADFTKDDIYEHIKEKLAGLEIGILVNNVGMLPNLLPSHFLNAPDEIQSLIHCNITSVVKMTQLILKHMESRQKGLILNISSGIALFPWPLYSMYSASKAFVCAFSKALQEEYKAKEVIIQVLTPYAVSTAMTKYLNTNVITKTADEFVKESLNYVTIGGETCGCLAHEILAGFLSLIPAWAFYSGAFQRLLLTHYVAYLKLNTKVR

[37] = biological target: T2, 17-beta-hydroxysteroid dehydrogenase type 1 (Homo sapiens, UniProt P14061); assay: Inhibition of human 17beta-HSD1 by HPLC assay
T2 sequence (P14061 whole entry): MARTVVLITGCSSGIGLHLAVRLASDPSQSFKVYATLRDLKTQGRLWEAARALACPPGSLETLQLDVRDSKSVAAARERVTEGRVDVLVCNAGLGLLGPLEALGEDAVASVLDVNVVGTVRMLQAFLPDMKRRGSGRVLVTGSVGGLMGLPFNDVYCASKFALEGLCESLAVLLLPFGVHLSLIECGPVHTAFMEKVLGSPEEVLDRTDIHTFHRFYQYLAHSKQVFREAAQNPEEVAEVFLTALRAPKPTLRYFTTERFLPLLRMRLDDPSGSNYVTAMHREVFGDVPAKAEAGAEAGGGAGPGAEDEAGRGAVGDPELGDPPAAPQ

[38] = biological target: T3, 11-beta-hydroxysteroid dehydrogenase type 2 (Homo sapiens, UniProt P80365); assay: Inhibition of human 11beta-HSD2 by HTRF assay
T3 sequence (P80365 whole entry): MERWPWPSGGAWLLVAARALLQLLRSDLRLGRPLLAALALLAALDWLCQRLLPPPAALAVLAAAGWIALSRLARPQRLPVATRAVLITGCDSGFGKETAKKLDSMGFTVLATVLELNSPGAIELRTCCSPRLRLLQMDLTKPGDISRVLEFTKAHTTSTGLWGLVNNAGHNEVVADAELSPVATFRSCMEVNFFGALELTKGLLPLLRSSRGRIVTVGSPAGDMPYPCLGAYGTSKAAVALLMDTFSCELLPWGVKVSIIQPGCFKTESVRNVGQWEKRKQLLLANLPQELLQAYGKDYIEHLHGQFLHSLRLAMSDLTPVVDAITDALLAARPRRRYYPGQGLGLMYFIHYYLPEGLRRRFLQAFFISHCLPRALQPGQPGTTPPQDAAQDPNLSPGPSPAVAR

[39] = biological target: T4, 11-beta-hydroxysteroid dehydrogenase 1 (Homo sapiens, UniProt P28845); assay: Inhibition of human 11beta-HSD1 by HPLC assay
[40] = as §1; type: ADME, organism-based; details: Han Wistar, in vivo
[41] = biological target: T4, 11-beta-hydroxysteroid dehydrogenase 1; assay: Inhibition of human 11beta-HSD1 by HTRF assay
[42] = Volume of distribution at steady state in female beagle dog at 0.6 umol/kg, iv; type: ADME, organism-based, Canis lupus familiaris; details: in vivo, read-out: Vdss
[43] = Volume of distribution at steady state in male beagle dog at 0.6 umol/kg, iv; type: ADME, organism-based, Canis lupus familiaris; details: in vivo, read-out: Vdss
[44] = Half life in male beagle dog at 0.6 umol/kg, iv; type: ADME, organism-based, Canis lupus familiaris; details: in vivo
[45] = Half life in female beagle dog at 0.6 umol/kg, iv; type: ADME, organism-based, Canis lupus familiaris; details: in vivo
[46] = Clearance in female beagle dog at 0.6 umol/kg, iv; type: ADME, organism-based, Canis lupus familiaris; details: in vivo
[47] = Clearance in male beagle dog at 0.6 umol/kg, iv; type: ADME, organism-based, Canis lupus familiaris; details: in vivo
[48] = Oral bioavailability in Han Wistar rat at 7 umol/kg; type: ADME, organism-based; details: in vivo
[49] = AUC in Han Wistar rat at 7 umol/kg, po; type: ADME, organism-based, Plasma; details: whole blood
Mus musculus [50] = assay: Reduction in body weight in obese mouse at 50 mg/kg/day, po; type: functional, organism-based
Mus musculus [51] = assay: Reduction in fasting plasma glucose levels in obese mouse at 50 mg/kg/day, po; type: functional, organism-based
Mus musculus [52] = assay: Reduction in body weight in obese mouse at 300 mg/kg/day, po; type: functional, organism-based
Mus musculus [53] = assay: Reduction in fasting plasma glucose levels in obese mouse at 300 mg/kg/day, po; type: functional, organism-based
[54] = biological target: Corticosteroid 11-beta-dehydrogenase isozyme 1 (Mus musculus) (UniProt P50172); assay: Inhibition of 11beta-HSD1 in po dosed mouse liver assessed as target engagement; design: scale not given: the % may be the effect or the level left

Sequence of 11-beta-hydroxysteroid dehydrogenase 1 (Mus musculus, UniProt P50172) (P50172 whole entry): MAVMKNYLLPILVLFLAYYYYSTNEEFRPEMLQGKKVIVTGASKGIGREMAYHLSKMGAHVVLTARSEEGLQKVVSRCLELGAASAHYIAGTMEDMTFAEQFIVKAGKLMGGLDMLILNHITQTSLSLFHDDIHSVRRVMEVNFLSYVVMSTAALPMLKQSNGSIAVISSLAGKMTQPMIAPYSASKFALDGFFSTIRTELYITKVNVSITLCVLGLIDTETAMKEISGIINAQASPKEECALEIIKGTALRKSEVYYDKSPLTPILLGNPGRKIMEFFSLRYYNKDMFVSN
T4 sequence (P28845 whole entry): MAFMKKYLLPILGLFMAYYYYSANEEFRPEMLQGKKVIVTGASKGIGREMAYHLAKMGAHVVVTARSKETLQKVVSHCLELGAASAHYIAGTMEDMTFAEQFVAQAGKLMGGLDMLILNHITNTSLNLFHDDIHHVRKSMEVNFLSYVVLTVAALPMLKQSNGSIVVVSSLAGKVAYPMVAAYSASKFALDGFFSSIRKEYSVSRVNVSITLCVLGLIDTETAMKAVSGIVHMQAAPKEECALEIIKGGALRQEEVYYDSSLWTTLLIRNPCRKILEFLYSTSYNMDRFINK

logD [1]: 3.1 | F (Rattus norvegicus [2]): 161% | IC50 [3]: 20 nM
Structure (SMILES): CC(C)(CO)Nc1ncc(C(=O)N[C@H]2C3CC4CC2C[C@](O)(C4)C3)c(OC2CCC2)n1

IC50 (Rattus norvegicus [4]): 87 nM | IC50 (Mus musculus [5]): 30 nM | fraction unbound [6]: 0.52 | hepatocyte CLint [7]: < 2 µL/min/1e6 cells | hepatocyte CLint [8]: < 2 µL/min/1e6 cells | hepatocyte CLint [9]: < 2 µL/min/1e6 cells | hepatocyte CLint [10]: 3.6 µL/min/1e6 cells | hepatocyte CLint [11]: < 2 µL/min/1e6 cells | fraction unbound [12]: > 0.66 | fraction unbound [13]: 0.55 | fraction unbound [14]: > 0.66 | bioavailability [15]: 23% | fraction unbound [16]: > 0.5 | bioavailability [17]: 34% | bioavailability [18]: 100% | AUC [19]: 0.16 µM·h | bioavailability [20]: 57% | AUC [21]: 10.4 µM·h | AUC [22]: 0.38 µM·h | Vd [23]: 1.6 L/kg | AUC [24]: 2.7 µM·h | Vd [25]: 1.1 L/kg | Vd [26]: 1.1 L/kg | Vd [27]: 0.9 L/kg | half-life [28]: 42 min | half-life [29]: 36 min | half-life [30]: 48 min | half-life [31]: 24 min | clearance [32]: 19 mL/min/kg | clearance [33]: 29 mL/min/kg | clearance [34]: 32 mL/min/kg | clearance [35]: 42 mL/min/kg | inhibition [36]: 4% | IC50 [37]: > 35000 nM | IC50 [38]: > 30000 nM | IC50 [39]: 14 nM | logD [1]: 2.1 | bioavailability [40]: 100% | IC50 [3]: 27 nM | IC50 [41]: 28 nM
Structure (SMILES): O=C(N[C@H]1C2CC3CC1C[C@](O)(C3)C2)c1cnc(NC2CCOCC2)nc1C1CCC1

Vd [42]: 0.6 L/kg | Vd [43]: 0.7 L/kg | half-life [44]: 36 min | half-life [45]: 36 min | clearance [46]: 14 mL/min/kg | clearance [47]: 17 mL/min/kg | bioavailability [48]: 61% | AUC [49]: 5.6 µM·h | IC50 (Mus musculus [5]): 50 nM | fraction unbound [6]: 0.38 | hepatocyte CLint [7]: < 2 µL/min/1e6 cells | hepatocyte CLint [8]: 6.7 µL/min/1e6 cells | hepatocyte CLint [9]: 6.7 µL/min/1e6 cells | hepatocyte CLint [10]: 9.1 µL/min/1e6 cells | hepatocyte CLint [11]: < 2 µL/min/1e6 cells | fraction unbound [12]: 0.38 | fraction unbound [13]: 0.35 | fraction unbound [14]: 0.38 | bioavailability [15]: 30% | fraction unbound [16]: 0.3 | bioavailability [17]: 15% | AUC [19]: 0.42 µM·h | bioavailability [20]: 34% | AUC [22]: 0.19 µM·h | AUC [24]: 1.5 µM·h | Vd [26]: 2.4 L/kg | Vd [27]: 1 L/kg | half-life [29]: 144 min | half-life [31]: 42 min | clearance [34]: 9 mL/min/kg | clearance [35]: 57 mL/min/kg | inhibition [36]: 7% | IC50 [37]: > 100000 nM | IC50 [38]: > 30000 nM | IC50 [39]: 1.6 nM | logD [1]: 2.4 | bioavailability [40]: 61% | IC50 [3]: 32 nM | IC50 [41]: 21 nM
Structure (SMILES): O=C(N[C@H]1C2CC3CC1C[C@](O)(C3)C2)c1cnc(N[C@H]2CCOC2)nc1C1CCCC1
Activity (Mus musculus [50]): Active | Activity (Mus musculus [51]): inactive | Activity (Mus musculus [52]): Active | Activity (Mus musculus [53]): Active | Activity [54]: >90%
